Details: a range is the spread between reports

melting point [°C] | SMILES
49 to 52.5 | COc1ccc(C(C)=O)c(O)c1
-88 to -85 | CC1CNCC(C)O1 (stereo not given)
116 to 117 | O=C(O)Cc1ccc(Br)cc1
162 to 163 | O=C(O)c1c(Cl)cc(Cl)cc1Cl
126 to 127 | O=C(O)CCCCCCCCCCCCCCCCCCC(=O)O
32 to 33 | CCCCCCCCCCCCCCCCCCC
116 to 118 | NC(=O)c1ccccc1F
-24 to -23.6 | CCC(C)(O)CC
-68 to -67.9 | CCc1ccccc1Br
-53 to -52.5 | C=Cc1ccccc1Br
83 to 85 | COC(=O)c1cc(OC)c(OC)c(OC)c1
121 to 124 | NNC(=O)c1ccccc1[N+](=O)[O-]
36 to 38 | Clc1ccc2ccccc2n1
110 to 111 | CC(=O)Nc1ccccc1C
65 to 68 | CCCCCCc1ccc(O)cc1O
100 to 102 | OC1CCCCC1O (stereo not given)
200 to 203 | O=C1Nc2ccccc2C1=O
-36 to -35 | Cc1cccc(C)c1Cl
119 to 121 | O=[N+]([O-])c1ccc(O)c(F)c1
73 to 75 | Sc1ccc(Br)cc1
38 to 39.5 | Oc1c(F)cccc1F
4 to 7 | OC/C=C\CO
116 to 118 | O=C(Oc1cccc(OC(=O)c2ccccc2)c1)c1ccccc1

melting point [°C] | SMILES
27 to 28 | N#CCc1cccc(Br)c1
-41.2 to -41 | SCCS
154 to 156 | OC1c2ccccc2-c2ccccc21
64 to 66 | CCCCNC(=S)NCCCC
-0.5 to 1 | CC(C)(C)S
96 to 99 | O=C(C=Cc1ccccc1)c1ccc(Cl)cc1
56 to 57.7 | C#CCCC(=O)O
118 to 121 | Nc1cc([N+](=O)[O-])ccc1Cl
-39.4 to -39 | CCCCCCCCCCl
-102 | C=CCCCCCC
-89 to -87.5 | Cc1ccco1
96 to 97.5 | Nc1ccc(F)c([N+](=O)[O-])c1
-99 to -98.9 | CCC(C)OC(C)=O (stereo not given)
44 to 46.5 | O=[N+]([O-])c1cccs1
128 to 129 | Cc1cc(O)ccc1O
-54 to -53.7 | CCc1cc(C)ccc1C
-13 to -11 | CC(C)C(O)C(C)(C)C (stereo not given)
-67 to -66.9 | CCc1ccc(C)c(C)c1
1 to 4 | COC(=O)OC
-20 to -18 | CCOC(=O)CCCCC(=O)OCC
95 to 98 | c1ccc(OCCOc2ccccc2)cc1
187 to 188 | Nc1ccc([N+](=O)[O-])cn1
196 to 197 | O=Cc1c[nH]c2ccccc12

melting point [°C] | SMILES
76.5 to 79 | CC1(C)OC(=O)NC1=O
142 | CC12CCC(=O)C=C1CCC1C2CCC2(C)C(C(=O)CO)CCC12 (stereo not given)
-105 | C#CCC(C)C
109 to 112 | Cc1cccc(C(=O)O)c1
-154 to -153 | C=CC(C)CC (stereo not given)
58 to 61 | Cc1cc2ccccc2[nH]1
-27.2 to -27 | Cc1cccc(I)c1
275 to 276 | c1ccc(-c2nc(-c3ccccc3)c(-c3ccccc3)[nH]2)cc1
25.5 to 30 | CC(C)(N)CO
18 to 18.5 | CS(C)=O
188 to 189 | Nc1ncc2ncn(COCCO)c2n1
43.2 to 45 | CCCCCCCCCCCC(=O)O
198 to 202 | Nc1ccc(/C=C/c2ccc([N+](=O)[O-])cc2)c([N+](=O)[O-])c1
130 to 134 | O=C(O)c1ccco1
65 to 68 | Cc1cccc(O)c1O
65 to 68 | Cc1ccc(O)c(O)c1
138 to 140 | Cc1ccc2cccc([N+](=O)[O-])c2n1
-101 | CCC(C)C(C)(C)CC (stereo not given)
-20.1 to -20 | CCCCCCCCCS
136 to 137 | O=C(Nc1ccccc1)c1ccccc1O
10 to 11 | NCCO
38 to 38.5 | COc1cccc([N+](=O)[O-])c1
-121 | CCCCC(C)(C)C

melting point [°C] | SMILES
-30 to -29.8 | Cc1c(F)c(F)c(F)c(F)c1F
70 to 72.5 | CCCCCCCCCCCCCCCCCCCCCCO
36 to 38 | OCc1ccc(Cl)c(Cl)c1
184 to 185 | COc1ccc(C(=O)O)cc1
-116 | CCCCS
97 | c1ccc2n[nH]nc2c1
-75.6 to -75 | C=C(C)CCC(=C)C
138 to 139 | O=C(O)c1cc(Cl)ccc1[N+](=O)[O-]
-76 to -75.7 | CCCCCS
90 to 93 | Nc1nccs1
170 to 171 | Cc1cc(C)cc(C(=O)O)c1
-90 to -88 | CC(C)O
180 to 183 | CN(C)c1ccc(/N=N/c2ccccc2C(=O)O)cc1
142 to 143 | NC(=O)c1cccc([N+](=O)[O-])c1
-7 to -4 | OCCOCCOCCO
-102 | CC(C)C(C)(C)C(C)C
74 to 75 | Cn1c(=O)ccc2ccccc21
-92 to -91.5 | CCCCOC(=O)CCC
28 to 32 | COc1ccccc1O
219 to 220 | CCCc1cc(O)nc(S)n1
31.5 to 34 | O=Cc1ccc(CO)o1
151 to 152 | O=S(=O)(Cc1ccccc1)Cc1ccccc1
15.5 to 18.5 | O=C(O)C1CC1

melting point [°C] | SMILES
15 to 17 | CC(C)(C)c1ccc(N)cc1
10 to 10.5 | CC(=O)c1cccs1
159 to 160 | O=[N+]([O-])c1ccc(Nc2ccccc2)c([N+](=O)[O-])c1
4.5 to 5 | Cc1cccc(-c2ccccc2)c1
263 to 268 | O=C1CN(N=Cc2ccc([N+](=O)[O-])o2)C(=O)N1
97 to 98 | COc1ccc(CC(=O)O)cc1OC
60 to 60.8 | OC(c1ccccc1)c1ccc(Cl)cc1 (stereo not given)
66 to 66.5 | CCOc1ccc(O)cc1
231 to 236 | O=C(O)c1cc(I)cc(I)c1O
225 to 230 | Sc1ncc[nH]1
62 to 64 | OCc1ccccc1CO
28 to 29 | NCCCNCCCCNCCCN
-50 to -46 | CCN(C(C)C)C(C)C
242 to 243 | CN(C)c1ccc(C(=O)O)cc1
65.8 to 67 | CCCCCCCCCCCCCCCCCCCCCCCCCCCCCC
95 to 96 | Cc1cccc([N+](=O)[O-])c1N
128 to 129 | CC(C)C(N)=O
104 to 108 | Cc1ccccc1C(=O)O
100 to 105 | CC1(C)C(=O)NC(=O)N1CO
42 to 45 | OCCCCCCO
78 to 79 | COc1ccc2c(c1)CCCC2=O
75 to 76 | O=S(=O)(Cl)c1ccc(Br)cc1
128 to 130 | O=C(O)c1cccs1

melting point [°C] | SMILES
51 to 52 | O=S(=O)(Cl)c1ccc(Cl)cc1
-106 | CCC1CCCC1C (stereo not given)
-115 | CCC(CC)C(C)C
89 to 90 | Clc1ccc2cc[nH]c2c1
28 to 28.2 | CCCCCCCCCCCCCCCCCCBr
132 to 134 | Cc1ccc(C)c(C(=O)O)c1
59 to 61 | C1CCCCCCCCCCC1
121 to 125 | CC(=O)Oc1ccc(OC(C)=O)cc1
234 to 237 | CC12C=CC(=O)C=C1CCC1C2C(=O)CC2(C)C1CCC2(O)C(=O)CO (stereo not given)
-111 | CC(F)(F)F
52 to 54.8 | OC1CCc2ccccc21 (stereo not given)
-3 to 0.3 | CCCCCCCCCCCCI
64 to 65 | O=C(O)CSc1ccccc1
99 to 101 | COc1ccccc1C(=O)O
-4 to -3 | OC(C(F)(F)F)C(F)(F)F
43 to 44 | O=Cc1ccc(Cl)c(Cl)c1
-77 to -76.9 | CCc1cccnc1
201 to 203 | Oc1ccnc2ccccc12

SMILES | melting point [°C]
C1CN2CCN1CC2 | 158 to 159
N#CCCCl | -51 to -50
CCC(C)(C)O | -12 to -8
Nc1cccc(Cl)c1Cl | 22 to 24
Clc1ccc(Br)cc1 | 65 to 68
CCNc1nc(NC(C)(C)C)nc(SC)n1 | 104 to 105
Fc1cc(F)c(F)c(F)c1F | -48 to -47.3
ClCc1ccc(Cl)cc1 | 28 to 31
N#CCCCCCCC#N | -3.5 to -3
CCC(=O)c1ccc(C)cc1 | 7 to 7.2
CCC(=O)c1ccc(Cl)cc1 | 35 to 37.3
CCCCCC#N | -80.3 to -80
CC1OC(C)OC(C)O1 (stereo not given) | 12 to 12.6
ClC(Cl)=C(Cl)Cl | -22.3 to -22
COc1ccc2c3c1O[C@H]1[C@@H](O)C=C[C@H]4[C@@H](C2)N(C)CC[C@@]341 | 155 to 158
O=S(=O)(Cl)Cl | -54.1 to -54
NNC=O | 55 to 57
Fc1c(F)c(F)c(-c2c(F)c(F)c(F)c(F)c2F)c(F)c1F | 67 to 68
Cc1ccc(N)c(N)c1 | 88 to 89.5
CCNc1nc(Cl)nc(NCC)n1 | 226 to 228
Cc1ccc(O)c(C)c1 | 22 to 27

SMILES | melting point [°C]
ClCc1ccccc1CCl | 55 to 56
N#CC(Br)(Br)C(N)=O | 124
ClC=C(Cl)Cl | -85 to -84.7
CCCCC(CC)COC(=O)c1ccccc1C(=O)OCC(CC)CCCC (stereo not given) | -55 to -50
C=CC=O | -87.7 to -87
O=C(CCl)c1ccccc1 | 54 to 56.5
CCCCCCCCCCBr | -30 to -29
c1ccc2c(c1)cc1ccc3cccc4ccc2c1c34 | 176 to 179
COC(=O)C1C(OC(=O)c2ccccc2)CC2CCC1N2C (stereo not given) | 93.5 to 98
O=[N+]([O-])c1cccc2cccnc12 | 88 to 90
O=[N+]([O-])c1cccc2c([N+](=O)[O-])cccc12 | 216 to 219
C/C=C/C=O | -76.5 to -76
N#Cc1ccccc1C=O | 104 to 108
N#CCc1cccc(Cl)c1 | 11.5 to 12
Oc1c(Cl)cccc1Cl | 65 to 68.5
C=CC(=O)OCCCC | -64.6 to -64
CCC#N | -93 to -92
COC(=O)CCl | -32.1 to -32
COP(=S)(OC)SCn1nnc2ccccc2c1=O | 72 to 73
Cc1c[nH]cn1 | 51 to 56
CC(C)(C)C(O)C(Oc1ccc(Cl)cc1)n1cncn1 (stereo not given) | 134 to 138

Source: a melting point compilation (Tetko et al.)
